{
  "source": "patent EP0157753B1",
  "about": "“New somatostatin compounds, process for their synthesis, preparation for veterinary use containing said compound and process for the treatment of animals” (TECHLAND, Société Anonyme, priority 1984, dated 1987)",
  "assay": "Treatment of young bulls with GPP: live weight gain and food intake over 7 months",
  "assay_type": "in vivo",
  "conditions": "batch 5 (SRIF, MTP treated) versus batch 3 (SRIF, MDP treated); low, without any statistical significance",
  "protocol": "They were injected four times with 100 µg of GPP or a mixture of equivalent amounts of muramyl di-or triptide and SRIF. Samples were solubilized in physiological medium supplemented with 40 % WN polyethyleneglycol 6000. Intramuscular injections in the neck of animals were performed with 3 ml of the solution at days 0, 10, 30 and 60 of the 7 months period. During the seventh months treatment period the animals received a concentrate ad libitum. Each month, the animals were weighed and blood samples were taken for further analyses. The results concerning the parameters studied in this zootechnical experiment were summarized in the following.\nVariance analysis of the body live weight gain has been performed on 27 animals alive on September 27, 1984 (16 controls and 11 treated animals). At that time, the difference of life weight gain between the 16 control animals and the 11 treated animals was 31.3 kg per animal, i. e. 11 % over controls.",
  "data": [
    {"substance": "SRIF, MTP: Coupling of a muramyl tripeptide analog (N-acetyl muramyl-L-Ala-D-isoglutamyl-L-lysine OMe) with somatostatine (SRIF)", "values": [
      {"measurement": "deviation between the life gain of treated animals of batch 5 and batch 3", "value": 5.7, "unit": "kg"}
    ]}
  ]
}
